Measurements: US12404232B2, “Compounds and compositions for intracellular delivery of therapeutic agents” (ModernaTX, Inc., priority 2015, dated 2025)

Columns and labels:
mice [1] = test: Cytokine induction (IL-6, IP-10) in mice after intravenous administration; format: in vivo; set-up: IL-6 / IP-10: unit not given here; details: 0.5 mpk, 6 hours
In short: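 Nanoparticle compositions given intravenously to mice at 0.5 mpk; serum cytokine concentrations measured at 6 hours, with MC3 formulation and PBS as comparators.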

[2] = Encapsulation of RNA by the nanoparticle composition (QUANT-IT RIBOGREEN RNA assay); format: physicochemical; details: nanoparticle composition 50:10:38.5:1.5 mol % (Table 1A)
Description: The efficiency of encapsulation of a therapeutic and/or prophylactic describes the amount of therapeutic and/or prophylactic that is encapsulated or otherwise associated with a nanoparticle composition after preparation, relative to the initial amount provided. The encapsulation efficiency is desirably high (e.g., close to 100%). The encapsulation efficiency may be measured, for example, by comparing the amount of therapeutic and/or prophylactic in a solution containing the nanoparticle composition before and after breaking up the nanoparticle composition with one or more organic solvents or detergents. Fluorescence may be used to measure the amount of free therapeutic and/or prophylactic (e.g., RNA) in a solution. For the nanoparticle compositions described herein, the encapsulation efficiency of a therapeutic and/or prophylactic may be at least 50%, for example 50%, 55%, 60%, 65%, 70%, 75%, 80%, 85%, 90%, 91%, 92%, 93%, 94%, 95%, 96%, 97%, 98%, 99%, or 100%. In some embodiments, the encapsulation efficiency may be at least 80%. In certain embodiments, the encapsulation efficiency may be at least 90%.
For nanoparticle compositions including an RNA, a QUANT-IT™ RIBOGREEN® RNA assay (Invitrogen Corporation Carlsbad, CA) can be used to evaluate the encapsulation of an RNA by the nanoparticle composition. The samples are diluted to a concentration of approximately […] in a TE buffer solution (10 mM Tris-HCl, 1 mM EDTA, pH 7.5). 50 μL of the diluted samples are transferred to a polystyrene 96 well plate and either 50 μL of TE buffer or 50 μL of a 2% Triton X-100 solution is added to the wells. The plate is incubated at a temperature of 37° C. for 15 minutes. The RIBOGREEN® reagent is diluted 1:100 in TE buffer, and 100 μL of this solution is added to each well. The fluorescence intensity can be measured using a fluorescence plate reader (Wallac Victor 1420 Multilablel Counter; Perkin Elmer, Waltham, MA) at an excitation wavelength of, for example, about 480 nm and an emission wavelength of, for example, about 520 nm. The fluorescence values of the reagent blank are subtracted from that of each of the samples and the percentage of free RNA is determined by dividing the fluorescence intensity of the intact sample (without addition of Triton X-100) by the fluorescence value of the disrupted sample (caused by the addition of Triton X-100).
Initial studies were performed to compare the delivery efficiency of nanoparticle compositions including various compounds according to Formula (I), (IA), (II), (IIa), (IIb), (IIc), (IId) or (IIe). The cationic lipid MC3 is a current standard in the art. Accordingly, the standard MC3 formulation including about 50 mol % MC3, about 10 mol % DSPC, about 38.5 mol % cholesterol, and about 1.5 mol % PEG-DMG was used as a basis for this study. Nanoparticle compositions including DSPC as a phospholipid, cholesterol as a structural lipid, PEG-DMG as a PEG lipid, an RNA, and a compound according to Formula (I), (IA), (II), (IIa), (IIb), (IIc), (IId) or (IIe) selected from Compounds 1-159, 168-170, and 173-175 were prepared according to or via methods similar to those described in Examples 1 and 2. The ratios of the lipids were 50:10:38.5:1.5 mol % for the lipid according to Formula (I), (IA), (II), (IIa), (IIb), (IIc), (IId) or (IIe):DSPC:cholesterol:PEG-DMG. The RNA used was an mRNA encoding G5 luciferase (Luc) or G5 hEPO. Tables 1A-1B summarize the content and characteristics of the formulations. […]

[3] = Particle size and polydispersity index of nanoparticle compositions (Zetasizer Nano ZS); format: physicochemical; details: for PDI: nanoparticle composition 50:10:38.5:1.5 mol % (Table 1A); for Size (nm): nanoparticle composition lipid:DSPC:cholesterol:PEG-DMG 50:10:38.5:1.5 mol %, mRNA encoding Luc or hEPO (Table 1A)
In short: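 Formulations at 50:10:38.5:1.5 mol % (ionizable lipid, DSPC, cholesterol, PEG-DMG) encapsulating Luc or hEPO mRNA were measured in 1×PBS on a Zetasizer Nano ZS to give size and polydispersity index.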

rats = test: Residual lipid levels in liver and spleen of rats (UPLC-MS quantification); format: in vivo, rat; details: rats, 2 mpk, 48 h; assuming 300 g rat and 15 g liver
Protocol: At 48 h liver tissue was harvested for lipid quantification. To pre-weighed tissues, Milli-Q water was added (900 μL water per 100 mg tissue). Tissues were homogenized using an Omni probe homogenizer until uniform. 50 μL of samples and matrix calibration standards were aliquoted into a 96-well plate. 50 μL of blank matrix for matrix blanks and control blanks were aliquoted. 400 μL IS spiking solution were manually added to all samples except matrix blanks. 400 μL of 50:50 ACN:IPA were manually added to matrix blanks. The plate was covered and the samples vortexed and centrifuged for 5 minutes at >3000 rpm. 200 μL of the samples were transferred into a clean 96-well plate for analysis. Samples were analyzed on a Waters Acquity UPLC using a Higgins Analytical Clipeus C8 column ([…], 30×2.1 mm) and a gradient of either 70-95% or 60-95% (Mobile Phase A: 5 mM ammonium formate in 50:50:1 H2O:MeOH:formic acid; Mobile Phase B: 5 mM ammonium formate in 100:1 MeOH:formic acid) over 1.3 min at 1.2 mL/min (column temperature 55° C.). Detection was based on electrospray ionization (ESI) in positive mode using a Sciex API5500 Mass Spectrometer.
The expression of hEPO in rats intravenously administered a nanoparticle composition at a dose of 0.2 mpk or 2.0 mpk was measured at 6 hours. Table 16 summarize the ratio of hEPO expression levels using various nanoparticle compositions as compared to the hEPO expression level using MC3 formulation and the lipid levels in the liver measured 48 hours after administration, as described above. Tables 17 and 18 summarize the lipid levels in the liver and spleen measured 48 hours after administration of Compounds 28, 33, 53, and 54. Liver and spleen levels represent the average values calculated for 3 rats in each group. As is shown in Tables 17 and 18, less than 10% of Compounds 28, 33, 53, and 54 remained in the liver after 48 hours, while greater than 60% of MC3 remained.
Table 19 summarizes the hEPO expression, IP-10 induction, liver and spleen levels, and alanine aminotransferase (ALT) and aspartate aminotransferase (AST) measured upon intravenous administration of formulations including Compounds 48, 49, and 50 to rat at 0.2 and 2 mpk and hEPO mRNA. hEPO concentrations were measured 6 hours after administration, while cytokine induction and liver and spleen levels were measured 48 hours after administration. hEPO and IP-10 concentrations are presented in pg/ml, while liver levels are provided in ng/g. ALT and AST levels are presented in international units.
The expression of hEPO induced by intravenous administration to rats of nanoparticle compositions at various doses was measured at 2, 4, 6, 8, 24, and 48 hour time points. FIGS. 3-6 respectively summarize the hEPO expression measured upon intravenous administration of formulations including Compounds 26, 18, 25, and MC3 to rat at various doses. The lipid levels of Compound 26 in the liver after 48 hours were about 19%.
The expression of hEPO and lipid levels in the liver and spleen in rats intravenously administered a nanoparticle composition at a dose of 0.2 mpk was measured at various timepoints. Compounds 18 and 25 were selected for comparison with MC3. Lipids were formulated according to the standard MC3 formulation described above. Rats were administered intravenously a single 0.2 mpk dose and expression monitored at 0.25, 0.5, 1, 2, 4, 8, 24, and 48 hours after administration.

mice [4] = test: Luc expression (total flux) after intramuscular administration; format: in vivo; details: 6 hours after intramuscular administration, Luc mRNA and H10 mRNA
Protocol: The numbers 1-7 in this figure correspond to MC3, Compounds 168-170, and 173-175 respectively.
In order to monitor how effectively various nanoparticle compositions deliver therapeutic and/or prophylactics to targeted cells, different nanoparticle compositions including a particular therapeutic and/or prophylactic (for example, a modified or naturally occurring RNA such as an mRNA) are prepared and administered to rodent populations. Mice are intravenously, intramuscularly, intraarterially, or intratumorally administered a single dose including a nanoparticle composition with a formulation such as those provided in Example 3. In some instances, mice may be made to inhale doses. Dose sizes may range from 0.001 mg/kg to 10 mg/kg, where 10 mg/kg describes a dose including 10 mg of a therapeutic and/or prophylactic in a nanoparticle composition for each 1 kg of body mass of the mouse. A control composition including PBS may also be employed.
The total flux (measured by area under the curve, AUC) induced by administration of a formulation including a given lipid relative to that induced by administration of a formulation including MC3 was also measured for several lipids.
Sample formulations including both modified luciferase (Luc) mRNA and H10 mRNA were prepared and administered intramuscularly and the resulting expression and immunogenicity were evaluated simultaneously. Formulations including compounds according to Formula (I), (IA), (II), (IIa), (IIb), (IIc), (IId) or (IIe) were prepared and administered at doses of 0.001 and 0.01 mpk (e.g., doses of 0.0005 mpk of a formulation including Luc mRNA and a formulation including H10 mRNA or doses of 0.005 mpk of a formulation including Luc mRNA and a formulation including H10 mRNA).
Sample formulations including modified luciferase (Luc) mRNA prepared and administered intramuscularly and the resulting expression and immunogenicity were evaluated simultaneously. Formulations including compounds according to Formula (I), (IA), (II), (IIa), (IIb), (IIc), (IId) or (IIe) were prepared and administered at dose of […] 0.01 mpk.
The fluxes measured upon intravenous and intramuscular administration are compared in Table 6. Fluxes are presented as fold increase over that measured for MC3 formulations.

Row | IL-6 (mice [1]) | IP-10 (mice [1]) | EE (%) [2] [%] | PDI [3] | Size (nm) [3] [nm] | % Lipid Remaining in liver, 48 h* 2 mpk (rats) [%] | SMILES | Total flux (p/s) 0.001 mpk Dose (mice [4]) [p/s] | Total flux (p/s) 0.01 mpk Dose (mice [4]) [p/s]
1 | 6.245 | 209.63 | 96.4 | 0.19 | 93.3 |  | CCCCCCCCCOC(=O)CCCCCCCN(CCO)CCCCCCC(=O)OCC(CCCCCCCC)CCCCCCCC [Compound 143, Nonyl 8-((2-hydroxyethyl)(7-((2-octyldecyl)oxy)-7-oxoheptyl)amino)octanoate] |  | 
2 |  |  |  | 0.110 | 73.1 | 12.6 | CCCCCCCCC(CC)OC(=O)CCCCCCCN(CCO)CCCCCCCC(=O)OC(CCCCCCCC)CCCCCCCC (centres unmarked) [Compound 49, heptadecan-9-yl 8-((2-hydroxyethyl)(8-oxo-8-(undecan-3-yloxy)octyl)amino)octanoate] |  | 
3 |  |  | 94.35 | 0.1 | 80.7 |  | CCCCCCCCCOC(=O)CCCCCCCN(CCCCCCCC(=O)OC(CCCCCCCC)CCCCCCCC)CCCN/C(=N/C#N)N(C)C [Compound 168, Heptadecan-9-yl (Z)-8-((3-(2-cyano-3,3-dimethylguanidino)propyl)(8-(nonyloxy)-8-oxooctyl)amino)octanoate] |  | 
4 |  |  |  |  |  | 15.9 | CCCCCCCCC(CCC)OC(=O)CCCCCCCN(CCO)CCCCCCCC(=O)OC(CCCCCCCC)CCCCCCCC (centres unmarked) [Compound 50, dodecan-4-yl 8-((8-(heptadecan-9-yloxy)-8-oxooctyl)(2-hydroxyethyl)amino)octanoate] | 6.56E+05 | 1.13E+07
5 |  |  |  |  |  | 20 | CCCCCCCCCOC(=O)CCCN(CCO)CCCCCCCC(=O)OC(CCCCCCCC)CCCCCCCC [Compound 26, Heptadecan-9-yl 8-((2-hydroxyethyl)(4-(nonyloxy)-4-oxobutyl)amino)octanoate] | 3.90E+06 | 6.13E+07
6 |  |  | 96.1 | 0.11 | 60.1 |  | CCCCCCCCC(CCCCCCCC)OC(=O)CCCCCCCN(CCO)CCCC(=O)OC(CCCCC)CCCCCCCC (centres unmarked) [Compound 71, Heptadecan-9-yl 8-((2-hydroxyethyl)(4-oxo-4-(tetradecan-6-yloxy)butyl)amino)octanoate] |  | 
